Test results: paper PMC9232501, “Results of the phase I CCTG IND.231 trial of CX-5461 in patients with advanced solid tumors enriched for DNA-repair deficiencies” (Nature Communications, 2022)
Marks after values point to notes of the source that are not given here.

Assays:
[1] = tested on: HCT116 cells; test: ROS measurement with H2DCFDA before/after UVA 125 mJ/cm^2; format: cell-based, Human; conditions: CX-5461 0.1 μM or PDS 10 μM for 1 h
Experimental: ROS measurement with H2DCFDA: HCT116 cells were treated with vehicle, CX-5461 0.1 μM or PDS 10 μM for 1 h, then were added with H2DCFDA for 45 min before initial fluorescence measurement. Cells were then irradiated with UVA 125 mJ/cm^2, and immediately sent for a second fluorescent measurement. The ratio of the second and the first fluorescent measurement was calculated as the level of ROS induced by UVA. Assays were performed in the 1-hour time frame within which UV damage manifests, in contrast to G4 ligand-induced damage which takes 3–4 h to be measurable.
Supplementary Figures and Tables
Supplementary Figure 1. UVA radiation increased double-stranded DNA breaks and ROS.
Representative pictures of g -H2AX immunofluorescent staining with and without UVA radiation, for […]
condition, quantified in (b) Quantile and mean intensity of g-H2AX level per cell, vertical axis. UV and drug factor conditions, horizontal axis. Experiments were repeated two times (biological duplicates) and similar results were obtained. Number of cells as in Figure 5 g (c) The ratio of ROS level measured after UVA irradiation versus before UVA irradiation was calculated. Biological triplicates. The horizontal bar = median. ***P<0.0001, Welch’s t-test; n=8
(1 picture or pasted object on this page, not shown here)

[2] = tested on: patients with hematologic malignancies; set-up: method as in PMID 31092402; conditions: cited from earlier work
[3] = tested on: patients with advanced solid tumors; test: Phase I dose escalation: safety, tolerability, dose-limiting toxicity (CTCAE v4.0)
Source text: Doses were escalated using a 3 + 3 design, which allowed 3 or 4 patients to be initially enrolled in each dose level. […] The MAD was defined as the dose level at which ≥2/3 or ≥2/6 patients experienced dose-limiting toxicity. The RP2D was defined as the next lower dose below the MAD.
DLT included the following drug-related AEs occurring during cycle 1: grade 3 phototoxicity or grade 2 phototoxicity with blistering lasting ≥7 days, if adequate prevention was used; other grades 3 or 4 non-hematologic toxicity (excluding inadequately managed nausea and vomiting, alopecia or grade 3 fatigue lasting <7 days); grade 4 myelosuppression ≥7 days, febrile neutropenia or ≥grade 3 thrombocytopenic bleeding; or other toxicities of concern including those requiring ≥14 days delay in next cycle.
The starting dose was 50 mg/m^2 d1 and 8. An expansion cohort at the RP2D of 10-20 patients with breast cancer and BRCA1/2 (germline) or relevant somatic aberrations was planned.
AEs were assessed according to National Cancer Institute Common Terminology Criteria for Adverse Events (CTCAE) v4.0.

[4] = 325 mg/m^2 d1,8,15, N patients 4
[5] = 650 mg/m^2 d1,8,15, N patients 5
[6] = 40 treated patients, all dose levels
[7] = 475* mg/m^2 d1,8,15, N patients 6

Cc1cnc(CNC(=O)c2c(=O)c3ccc(N4CCCN(C)CC4)nc3n3c2sc2ccccc23)cn1 [CX-5461]
ROS in the presence of UVA (ratio after/before UVA) [1]: markedly increased
dose-limiting toxicities (kind) [2]: palmar–plantar erythrodysesthesia and phototoxicity
dose recommended for further study ([2]; intravenously once every 3 weeks (q3w)): 170 mg/m^2
Diarrhea, any causality, all grades (patients) ([3]; 50 mg/m^2 d1,8, N patients 4): 2
Dry eye, any causality, all grades (patients) ([3]; 50 mg/m^2 d1,8, N patients 4): 1
Fatigue, any causality, all grades (patients) ([3]; 50 mg/m^2 d1,8, N patients 4): 4
Headache, any causality, all grades (patients) ([3]; 50 mg/m^2 d1,8, N patients 4): 1
Nausea, any causality, all grades (patients) ([3]; 50 mg/m^2 d1,8, N patients 4): 3
Palmar–plantar erythrodysesthesia syndrome, any causality, all grades (patients) ([3]; 50 mg/m^2 d1,8, N patients 4): 1
Phototoxicity, any causality, all grades (patients) ([3]; 50 mg/m^2 d1,8, N patients 4): 2
Phototoxicity, number in parentheses (undefined in table; fits grade 3–4 count) ([3]; 50 mg/m^2 d1,8, N patients 4): 1
Diarrhea, any causality, all grades (patients) ([3]; 100 mg/m^2 d1,8, N patients 4): 1
Dry eye, any causality, all grades (patients) ([3]; 100 mg/m^2 d1,8, N patients 4): 1
Eye phototoxicity, any causality, all grades (patients) ([3]; 100 mg/m^2 d1,8, N patients 4): 1
Fatigue, any causality, all grades (patients) ([3]; 100 mg/m^2 d1,8, N patients 4): 3
Headache, any causality, all grades (patients) ([3]; 100 mg/m^2 d1,8, N patients 4): 3
Mucositis oral, any causality, all grades (patients) ([3]; 100 mg/m^2 d1,8, N patients 4): 2
Nausea, any causality, all grades (patients) ([3]; 100 mg/m^2 d1,8, N patients 4): 3
Palmar–plantar erythrodysesthesia syndrome, any causality, all grades (patients) ([3]; 100 mg/m^2 d1,8, N patients 4): 1
Phototoxicity, any causality, all grades (patients) ([3]; 100 mg/m^2 d1,8, N patients 4): 1
Diarrhea, any causality, all grades (patients) ([3]; 150 mg/m^2 d1,8, N patients 4): 1
Dry eye, any causality, all grades (patients) ([3]; 150 mg/m^2 d1,8, N patients 4): 2
Fatigue, any causality, all grades (patients) ([3]; 150 mg/m^2 d1,8, N patients 4): 3
Headache, any causality, all grades (patients) ([3]; 150 mg/m^2 d1,8, N patients 4): 2
Mucositis oral, any causality, all grades (patients) ([3]; 150 mg/m^2 d1,8, N patients 4): 1
Nausea, any causality, all grades (patients) ([3]; 150 mg/m^2 d1,8, N patients 4): 4
Palmar–plantar erythrodysesthesia syndrome, any causality, all grades (patients) ([3]; 150 mg/m^2 d1,8, N patients 4): 1
Phototoxicity, any causality, all grades (patients) ([3]; 150 mg/m^2 d1,8, N patients 4): 1
ALT, Grade 3 or 4 (patients) ([3]; 150 mg/m^2 d1,8, N pts 4): 2
AST, Grade 3 or 4 (patients) ([3]; 150 mg/m^2 d1,8, N pts 4): 2
Alkaline phosphatase, Grade 3 or 4 (patients) ([3]; 150 mg/m^2 d1,8, N pts 4): 1
Bilirubin, Grade 3 or 4 (patients) ([3]; 150 mg/m^2 d1,8, N pts 4): 1
Neutropenia, Grade 3 or 4 (patients) ([3]; 150 mg/m^2 d1,8, N pts 4): 1
Thrombocytopenia, Grade 3 or 4 (patients) ([3]; 150 mg/m^2 d1,8, N pts 4): 1
Diarrhea, any causality, all grades (patients) ([3]; 200 mg/m^2 d1,8, N patients 4): 2
Dry eye, any causality, all grades (patients) ([3]; 200 mg/m^2 d1,8, N patients 4): 1
Fatigue, any causality, all grades (patients) ([3]; 200 mg/m^2 d1,8, N patients 4): 2
Nausea, any causality, all grades (patients) ([3]; 200 mg/m^2 d1,8, N patients 4): 3
Phototoxicity, any causality, all grades (patients) ([3]; 200 mg/m^2 d1,8, N patients 4): 2
ALT, Grade 3 or 4 (patients) ([3]; 200 mg/m^2 d1,8, N pts 4): 1
AST, Grade 3 or 4 (patients) ([3]; 200 mg/m^2 d1,8, N pts 4): 1
Anemia, Grade 3 or 4 (patients) ([3]; 200 mg/m^2 d1,8, N pts 4): 1
Fatigue, any causality, all grades (patients) ([3]; 250 mg/m^2 d1,8, N patients 3): 2
Headache, any causality, all grades (patients) ([3]; 250 mg/m^2 d1,8, N patients 3): 1
Mucositis oral, any causality, all grades (patients) ([3]; 250 mg/m^2 d1,8, N patients 3): 1
Nausea, any causality, all grades (patients) ([3]; 250 mg/m^2 d1,8, N patients 3): 2
Palmar–plantar erythrodysesthesia syndrome, any causality, all grades (patients) ([3]; 250 mg/m^2 d1,8, N patients 3): 2
Phototoxicity, any causality, all grades (patients) ([3]; 250 mg/m^2 d1,8, N patients 3): 3
Phototoxicity, number in parentheses (undefined in table; fits grade 3–4 count) ([3]; 250 mg/m^2 d1,8, N patients 3): 1
Dry eye, any causality, all grades (patients) [3, 4]: 1
Eye phototoxicity, any causality, all grades (patients) [3, 4]: 1
Fatigue, any causality, all grades (patients) [3, 4]: 2
Nausea, any causality, all grades (patients) [3, 4]: 1
Palmar–plantar erythrodysesthesia syndrome, any causality, all grades (patients) [3, 4]: 1
Phototoxicity, any causality, all grades (patients) [3, 4]: 4
Phototoxicity, number in parentheses (undefined in table; fits grade 3–4 count) [3, 4]: 1
AST, Grade 3 or 4 (patients) ([3]; 325 mg/m^2 d1,8,15, N pts 4): 1
Neutropenia, Grade 3 or 4 (patients) ([3]; 325 mg/m^2 d1,8,15, N pts 4): 1
Diarrhea, any causality, all grades (patients) ([3]; 325 mg/m^2 d1,8, N patients 3): 1
Fatigue, any causality, all grades (patients) ([3]; 325 mg/m^2 d1,8, N patients 3): 3
Fatigue, number in parentheses (undefined in table; fits grade 3–4 count) ([3]; 325 mg/m^2 d1,8, N patients 3): 1
Nausea, any causality, all grades (patients) ([3]; 325 mg/m^2 d1,8, N patients 3): 2
Nausea, number in parentheses (undefined in table; fits grade 3–4 count) ([3]; 325 mg/m^2 d1,8, N patients 3): 1
Palmar–plantar erythrodysesthesia syndrome, any causality, all grades (patients) ([3]; 325 mg/m^2 d1,8, N patients 3): 1
Phototoxicity, any causality, all grades (patients) ([3]; 325 mg/m^2 d1,8, N patients 3): 1
Eye phototoxicity, any causality, all grades (patients) ([3]; 475 mg/m^2 d1,8, N patients 3): 1
Fatigue, any causality, all grades (patients) ([3]; 475 mg/m^2 d1,8, N patients 3): 2
Mucositis oral, any causality, all grades (patients) ([3]; 475 mg/m^2 d1,8, N patients 3): 1
Nausea, any causality, all grades (patients) ([3]; 475 mg/m^2 d1,8, N patients 3): 1
Palmar–plantar erythrodysesthesia syndrome, any causality, all grades (patients) ([3]; 475 mg/m^2 d1,8, N patients 3): 1
Phototoxicity, any causality, all grades (patients) ([3]; 475 mg/m^2 d1,8, N patients 3): 3
Diarrhea, any causality, all grades (patients) [3, 5]: 1
Dry eye, any causality, all grades (patients) [3, 5]: 1
Eye phototoxicity, any causality, all grades (patients) [3, 5]: 3
Fatigue, any causality, all grades (patients) [3, 5]: 3
Fatigue, number in parentheses (undefined in table; fits grade 3–4 count) [3, 5]: 1
Headache, any causality, all grades (patients) [3, 5]: 1
Mucositis oral, any causality, all grades (patients) [3, 5]: 2
Nausea, any causality, all grades (patients) [3, 5]: 3
Palmar–plantar erythrodysesthesia syndrome, any causality, all grades (patients) [3, 5]: 1 (1)
Palmar–plantar erythrodysesthesia syndrome, number in parentheses (undefined in table; fits grade 3–4 count) [3, 5]: 1 (1)
Phototoxicity, any causality, all grades (patients) [3, 5]: 3
Phototoxicity, number in parentheses (undefined in table; fits grade 3–4 count) [3, 5]: 1
Alkaline phosphatase, Grade 3 or 4 (patients) ([3]; 650 mg/m^2 d1,8,15, N pts 5): 1
Neutropenia, Grade 3 or 4 (patients) ([3]; 650 mg/m^2 d1,8,15, N pts 5): 2
toxicity to ionizing radiation ([3]; 13 patients who received radiotherapy during or following treatment): no excess toxicity to ionizing radiation
Treatment-related Dry eye, Grade 3–4, % ([3]; 40 treated patients): 0%
Treatment-related Dry eye, Total, % ([3]; 40 treated patients): 10%
Treatment-related Eye phototoxicity, Grade 1–2, % ([3]; 40 treated patients): 20%
Treatment-related Eye phototoxicity, Grade 3–4, % ([3]; 40 treated patients): 0%
Treatment-related Eye phototoxicity, Total, % ([3]; 40 treated patients): 20%
Treatment-related Headache, Grade 1–2, % ([3]; 40 treated patients): 12.5%
Treatment-related Headache, Grade 3–4, % ([3]; 40 treated patients): 0%
Treatment-related Headache, Total, % ([3]; 40 treated patients): 12.5%
Treatment-related Mucositis oral, Grade 1–2, % ([3]; 40 treated patients): 15%
Treatment-related Mucositis oral, Grade 3–4, % ([3]; 40 treated patients): 0%
Treatment-related Mucositis oral, Total, % ([3]; 40 treated patients): 15%
Treatment-related Nausea, Grade 1–2, % ([3]; 40 treated patients): 42.5%
Treatment-related Nausea, Grade 3–4, % ([3]; 40 treated patients): 2.5%
Treatment-related Nausea, Total, % ([3]; 40 treated patients): 45%
Treatment-related Palmar–plantar erythrodysesthesia, Grade 1–2, % ([3]; 40 treated patients): 20%
Treatment-related Palmar–plantar erythrodysesthesia, Grade 3–4, % ([3]; 40 treated patients): 2.5%
Treatment-related Palmar–plantar erythrodysesthesia, Total, % ([3]; 40 treated patients): 22.5%
Treatment-related Phototoxicity (skin), Grade 3–4, % ([3]; 40 treated patients): 15%
Treatment-related Phototoxicity (skin), Total, % ([3]; 40 treated patients): 60%
grade 3 or 4 related AE: nausea [3, 6]: 2.5%
grade 3 or 4 related AE: palmar–plantar erythrodysesthesia syndrome [3, 6]: 2.5%
grade 3 or 4 related AE: skin phototoxicity [3, 6]: 15%
Diarrhea, any causality, all grades (patients) [3, 7]: 1
Eye phototoxicity, any causality, all grades (patients) [3, 7]: 2
Fatigue, any causality, all grades (patients) [3, 7]: 5
Fatigue, number in parentheses (undefined in table; fits grade 3–4 count) [3, 7]: 2
Headache, any causality, all grades (patients) [3, 7]: 2
Nausea, any causality, all grades (patients) [3, 7]: 6
Palmar–plantar erythrodysesthesia syndrome, any causality, all grades (patients) [3, 7]: 1
Phototoxicity, any causality, all grades (patients) [3, 7]: 4
Phototoxicity, number in parentheses (undefined in table; fits grade 3–4 count) [3, 7]: 2
Anemia, Grade 3 or 4 (patients) ([3]; 475* mg/m^2 d1,8,15, N pts 6): 2
Dose-limiting toxicities (number) ([3]; Dose level 9, 650 mg/m^2/dose, Day 1, 8 & 15 Q4 weeks, 5 enrolled, one occurred after cycle 1): 2 **
maximal administered dose (MAD) ([3]; d1, 8, 15 (DL9)): 650 mg/m^2
recommended phase II dose (RP2D) ([3]; days 1, 8 and 15 every 4 weeks, 60-minute intravenous infusion): 475 mg/m^2
SAEs considered related to CX-5461 ([3]; grade 3 phototoxicity (DL0), grade 2 eye phototoxicity (DL8), grade 3 phototoxicity (DL8)): 3
serious AEs (SAEs) reported ([3]; in 13 patients): Sixteen
dose-limiting toxicity (kind) ([3]; in vivo): phototoxicity
participants with dose omission because of phototoxicity ([3]; in vivo): six
participants with dose reductions because of phototoxicity ([3]; in vivo): two
patients discontinuing therapy because of phototoxicity ([3]; in vivo): one
